Assay results published in the NIST ThermoML archive (doi:10.1021/je4004806).

Test: xn = mol fraction of the nth substance listed
Conditions: 101 kPa, Liquid; for mass density: Vibrating tube method; for viscosity: Capillary tube (Ostwald / Ubbelohde) method

CCCCCCCC [octane] + CCO
mass density [kg/m3]
Conditions	x1 = 0.1008	x1 = 0.2015	x1 = 0.2998	x1 = 0.4008	x1 = 0.4663	x1 = 0.6008	x1 = 0.6991	x1 = 0.7931	x1 = 0.9031	x1 = 1
293.15 K	766.88	750.57	738.83	729.83	724.97	716.77	712.03	708.31	704.73	702.54
298.15 K	762.56	746.27	734.53	725.55	720.68	712.52	707.81	704.12	700.59	698.49
303.15 K	758.23	741.94	730.2	721.22	716.37	708.23	703.55	699.9	696.43	694.44
308.15 K	753.87	737.57	725.83	716.86	712.02	703.91	699.27	695.65	692.24	690.37
313.15 K	749.47	733.15	721.42	712.46	707.63	699.56	694.94	691.37	688.03	686.29
318.15 K	745.03	728.69	716.96	708	703.19	695.15	690.58	687.05	683.78	682.19
323.15 K	740.54	724.18	712.45	703.5	698.69	690.7	686.17	682.7	679.51	678.08

CCO [ethanol] + CCCCCCCC
x2 = 0
Conditions	mass density [kg/m3]
293.15 K	790.91
298.15 K	786.6
303.15 K	782.28
308.15 K	777.94
313.15 K	773.56
318.15 K	769.15
323.15 K	764.69

CCCCCCCC [octane] + CCCCCO
x1 = 1
Conditions	mass density [kg/m3]	viscosity [mPa·s]
293.15 K	702.54	0.545
298.15 K	698.49	0.513
303.15 K	694.44	0.485
308.15 K	690.37	0.459
313.15 K	686.29	0.433
318.15 K	682.19	0.412
323.15 K	678.08	0.392
